# pIC50: −log10 of the molar value.
# How the values were obtained:
# [1] = biological target: T1, human sodium channels Nav 1.7 (Homo sapiens, UniProt Q15858); assay: Automated whole-cell voltage-clamp (ScreenPatch 384P) sodium current block, Nav 1.7; format: cell-based; conditions: CHO cells stably expressing human Nav 1.7; inactivation step -40 mV 8 s, test step 0 mV (TP1A); eight concentrations; exposure at least five minutes; room temperature; read-out: Nav1.7 IC50
# T1 construct: expressed in transfected cells
# Summary of the method: (§1)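 Stable CHO lines, whole-cell automated patch clamp at room temperature, ≥5 min exposure, eight concentrations. From -100 mV hold, 8 s at -40 mV, 20 ms at -100 mV, then test pulse to 10 mV (Nav 1.8) or 0 mV (Nav 1.7) at 0.05 Hz; peak-current % block fitted for IC50, averaged over repeats.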
# [2] = biological target: T2, human sodium channels Nav 1.8 (Homo sapiens, UniProt Q9Y5Y9); assay: Automated whole-cell voltage-clamp (ScreenPatch 384P) sodium current block, Nav 1.8; format: cell-based; conditions: CHO cells stably expressing human Nav 1.8; inactivation step -40 mV 8 s, test step 10 mV (TP1A); eight concentrations; exposure at least five minutes; room temperature; read-out: Nav1.8 IC50
# T2 construct: expressed in transfected cells
# Summary of the method: as §1
# T2 sequence (Q9Y5Y9 whole entry): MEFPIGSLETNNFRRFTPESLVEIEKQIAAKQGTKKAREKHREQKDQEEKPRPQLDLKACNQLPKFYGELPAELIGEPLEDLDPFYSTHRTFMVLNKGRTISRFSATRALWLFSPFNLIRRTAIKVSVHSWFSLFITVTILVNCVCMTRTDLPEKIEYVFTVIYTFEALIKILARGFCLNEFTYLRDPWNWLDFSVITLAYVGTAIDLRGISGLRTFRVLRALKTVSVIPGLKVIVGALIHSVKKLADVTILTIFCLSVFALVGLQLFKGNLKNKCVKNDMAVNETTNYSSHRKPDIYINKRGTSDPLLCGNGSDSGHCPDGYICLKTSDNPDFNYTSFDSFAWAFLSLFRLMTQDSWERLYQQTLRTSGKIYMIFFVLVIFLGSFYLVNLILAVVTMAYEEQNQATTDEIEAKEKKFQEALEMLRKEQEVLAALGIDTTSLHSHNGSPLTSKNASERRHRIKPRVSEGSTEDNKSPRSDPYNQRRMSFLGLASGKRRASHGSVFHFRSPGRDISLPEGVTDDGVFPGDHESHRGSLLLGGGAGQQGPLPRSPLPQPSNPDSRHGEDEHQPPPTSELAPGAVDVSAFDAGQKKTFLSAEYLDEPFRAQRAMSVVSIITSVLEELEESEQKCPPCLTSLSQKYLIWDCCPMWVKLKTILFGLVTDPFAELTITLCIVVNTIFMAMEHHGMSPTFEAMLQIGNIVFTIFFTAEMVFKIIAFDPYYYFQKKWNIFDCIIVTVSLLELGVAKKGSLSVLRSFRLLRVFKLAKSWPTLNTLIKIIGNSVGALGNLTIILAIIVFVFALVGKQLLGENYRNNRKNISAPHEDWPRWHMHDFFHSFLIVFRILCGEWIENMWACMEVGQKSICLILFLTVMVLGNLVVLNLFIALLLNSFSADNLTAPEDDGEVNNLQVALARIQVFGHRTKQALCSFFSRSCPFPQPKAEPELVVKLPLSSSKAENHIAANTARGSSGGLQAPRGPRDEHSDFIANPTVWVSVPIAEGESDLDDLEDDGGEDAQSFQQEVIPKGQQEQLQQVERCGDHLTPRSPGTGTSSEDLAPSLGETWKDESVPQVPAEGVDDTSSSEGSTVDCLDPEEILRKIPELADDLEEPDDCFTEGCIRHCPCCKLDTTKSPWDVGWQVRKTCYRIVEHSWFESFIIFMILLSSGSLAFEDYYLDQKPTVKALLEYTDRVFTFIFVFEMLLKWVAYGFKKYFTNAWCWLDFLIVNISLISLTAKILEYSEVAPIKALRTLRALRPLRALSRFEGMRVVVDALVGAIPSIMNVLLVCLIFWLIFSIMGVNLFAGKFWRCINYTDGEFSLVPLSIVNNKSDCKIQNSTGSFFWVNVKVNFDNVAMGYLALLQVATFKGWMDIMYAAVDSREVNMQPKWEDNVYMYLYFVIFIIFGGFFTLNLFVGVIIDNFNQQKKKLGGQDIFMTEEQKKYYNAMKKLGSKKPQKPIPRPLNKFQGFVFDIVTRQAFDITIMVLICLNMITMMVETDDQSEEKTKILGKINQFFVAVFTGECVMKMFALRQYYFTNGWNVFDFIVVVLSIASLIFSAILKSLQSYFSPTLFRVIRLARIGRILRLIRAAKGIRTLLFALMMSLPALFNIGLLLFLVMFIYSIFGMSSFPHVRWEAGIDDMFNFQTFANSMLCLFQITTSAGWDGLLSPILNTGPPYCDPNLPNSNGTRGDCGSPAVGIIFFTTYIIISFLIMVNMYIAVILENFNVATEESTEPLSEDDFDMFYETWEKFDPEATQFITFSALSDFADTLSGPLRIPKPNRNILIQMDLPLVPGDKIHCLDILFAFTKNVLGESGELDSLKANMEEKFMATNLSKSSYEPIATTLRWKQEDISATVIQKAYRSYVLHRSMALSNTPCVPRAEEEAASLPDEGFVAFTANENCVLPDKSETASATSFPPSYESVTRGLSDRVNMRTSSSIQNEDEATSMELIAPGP
# T1 sequence (Q15858 whole entry): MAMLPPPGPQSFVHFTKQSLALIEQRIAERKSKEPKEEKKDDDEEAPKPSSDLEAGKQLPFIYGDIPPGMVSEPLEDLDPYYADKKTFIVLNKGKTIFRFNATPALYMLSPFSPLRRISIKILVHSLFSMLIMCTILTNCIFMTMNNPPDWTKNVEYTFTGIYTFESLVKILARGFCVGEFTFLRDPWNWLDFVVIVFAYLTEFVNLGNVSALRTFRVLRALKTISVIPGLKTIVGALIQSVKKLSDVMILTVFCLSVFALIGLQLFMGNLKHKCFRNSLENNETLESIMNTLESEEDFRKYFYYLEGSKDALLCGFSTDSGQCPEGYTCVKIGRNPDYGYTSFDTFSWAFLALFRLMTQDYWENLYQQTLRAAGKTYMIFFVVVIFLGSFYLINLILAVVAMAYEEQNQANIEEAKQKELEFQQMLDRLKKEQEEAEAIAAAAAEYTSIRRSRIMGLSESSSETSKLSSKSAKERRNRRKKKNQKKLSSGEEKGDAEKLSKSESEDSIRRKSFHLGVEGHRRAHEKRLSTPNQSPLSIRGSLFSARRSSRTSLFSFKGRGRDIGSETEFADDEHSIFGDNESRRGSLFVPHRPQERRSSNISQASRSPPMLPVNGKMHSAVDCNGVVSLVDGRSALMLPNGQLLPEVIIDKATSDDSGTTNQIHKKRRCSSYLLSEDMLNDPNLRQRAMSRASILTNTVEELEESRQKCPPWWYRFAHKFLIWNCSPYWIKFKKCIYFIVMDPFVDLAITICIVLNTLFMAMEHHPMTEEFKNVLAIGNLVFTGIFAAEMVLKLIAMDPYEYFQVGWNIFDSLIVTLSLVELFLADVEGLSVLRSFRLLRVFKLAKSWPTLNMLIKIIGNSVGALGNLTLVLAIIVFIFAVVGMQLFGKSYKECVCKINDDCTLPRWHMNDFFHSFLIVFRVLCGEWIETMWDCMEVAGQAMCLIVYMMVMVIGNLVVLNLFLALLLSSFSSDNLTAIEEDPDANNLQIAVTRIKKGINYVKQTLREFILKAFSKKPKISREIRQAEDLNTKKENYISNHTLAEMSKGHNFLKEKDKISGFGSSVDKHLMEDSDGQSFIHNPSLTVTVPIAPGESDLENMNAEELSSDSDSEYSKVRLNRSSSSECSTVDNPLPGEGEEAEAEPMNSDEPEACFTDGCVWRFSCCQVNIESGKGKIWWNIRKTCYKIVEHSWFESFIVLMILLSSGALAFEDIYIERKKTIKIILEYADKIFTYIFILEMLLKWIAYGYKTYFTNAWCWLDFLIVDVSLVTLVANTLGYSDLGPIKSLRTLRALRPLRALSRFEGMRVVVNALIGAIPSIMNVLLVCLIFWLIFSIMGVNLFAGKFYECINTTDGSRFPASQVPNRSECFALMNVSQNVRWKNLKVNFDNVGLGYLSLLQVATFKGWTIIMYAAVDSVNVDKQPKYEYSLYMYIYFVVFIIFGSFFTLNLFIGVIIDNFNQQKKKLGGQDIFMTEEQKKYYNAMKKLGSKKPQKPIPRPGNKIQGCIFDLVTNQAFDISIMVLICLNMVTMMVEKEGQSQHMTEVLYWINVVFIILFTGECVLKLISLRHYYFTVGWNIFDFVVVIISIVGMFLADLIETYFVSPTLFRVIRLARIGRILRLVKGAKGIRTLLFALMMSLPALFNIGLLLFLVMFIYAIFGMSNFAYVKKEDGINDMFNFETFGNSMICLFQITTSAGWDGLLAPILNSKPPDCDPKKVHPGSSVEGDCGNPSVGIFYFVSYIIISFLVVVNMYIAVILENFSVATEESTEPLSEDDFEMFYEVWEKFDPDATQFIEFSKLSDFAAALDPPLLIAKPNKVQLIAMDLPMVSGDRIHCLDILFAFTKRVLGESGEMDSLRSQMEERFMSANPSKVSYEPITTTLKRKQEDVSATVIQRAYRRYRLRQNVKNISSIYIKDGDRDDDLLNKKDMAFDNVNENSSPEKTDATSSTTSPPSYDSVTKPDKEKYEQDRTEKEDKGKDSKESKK
pIC50 [1],pIC50 [2],SMILES
< 6.00,> 6.30,"CCOc1ccc(-c2cncc(C(=O)N/N=C/c3cc(OC)ccn3)n2)cn1 [Compound 9, (E)-6-(6-ethoxypyridine-3-yl)-N'-((4-methoxypyridine-2-yl)methylene)pyrazine-2-carbohydrazide]"
< 6.00,< 6.00,"CCOc1cc(OC)c(-c2cncc(C(=O)N/N=C/c3cc(OC)cnc3F)n2)cn1 [Compound 153, (E)-6-(6-ethoxy-4-methoxypyridine-3-yl)-N'-((2-fluoro-5-methoxypyridine-3-yl)methylene)pyrazine-2-carbohydrazide]"
< 6.00,< 6.00,"CCOc1ccc(-c2cncc(C(=O)N/N=C/c3cncc(C(C)O)c3)n2)cn1 (centres unmarked) [Compound 24, (E)-6-(6-ethoxypyridine-3-yl)-N'-((5-(1-hydroxyethyl)pyridine-3-yl)methylene)pyrazine-2-carbohydrazide]"
< 6.00,6.00 to 6.30,"CCOc1ccc(-c2cnc(N)c(C(=O)N/N=C/c3cc(OC)ccc3F)n2)cn1 [Compound 64, (E)-3-amino-6-(6-ethoxypyridine-3-yl)-N'-(2-fluoro-5-methoxybenzylidene) pyrazine-2-carbohydrazide]"
6.00 to 6.30,> 6.30,"COc1ccc(F)c(/C=N/NC(=O)c2cncc(-c3ccc(OC(F)F)nc3)n2)c1 [Compound 100, (E)-6-(6-(difluoromethoxy)pyridine-3-yl)-N'-(2-fluoro-5-methoxybenzylidene) pyrazine-2-carbohydrazide]"
< 6.00,> 6.30,"[2H]C([2H])([2H])Oc1cnc(F)c(/C=N/NC(=O)c2cncc(-c3ccc(OC([2H])([2H])C)nc3)n2)c1 [Compound 172, (E)-6-(6-(ethoxy-1,1-d2)pyridine-3-yl)-N'-((2-fluoro-5-(methoxy-d3)pyridine-3-yl)methylene)pyrazine-2-carbohydrazide]"
< 6.00,> 6.30,"COc1cnc(F)c(/C=N/NC(=O)c2cncc(-c3ccc(OC(F)F)nc3)n2)c1 [Compound 101, (E)-6-(6-(difluoromethoxy)pyridine-3-yl)-N'-((2-fluoro-5-methoxypyridine-3-yl)methylene)pyrazine-2-carbohydrazide]"
> 6.30,> 6.30,"O=C(N/N=C/c1cc(OC2CC2)ccc1F)c1cncc(-c2ccc(OC3CC3)nc2)n1 [Compound 82, (E)-N'-(5-cyclopropoxy-2-fluorobenzylidene)-6-(6-cyclopropoxypyridine-3-yl)pyrazine-2-carbohydrazide]"
< 6.00,< 6.00,"CCOc1ccc(-c2cncc(C(=O)N/N=C/c3cncn3C(C)C)n2)cn1 [Compound 53, (E)-6-(6-ethoxypyridine-3-yl)-N'-((1-isopropyl-1H-imidazole-5-yl)methylene)pyrazine-2-carbohydrazide]"
< 6.00,< 6.00,"COc1ccc(F)c(/C=N/NC(=O)c2cncc(-c3ccc(OCC(C)O)nc3)n2)c1 (centres unmarked) [Compound 138, (E)-N'-(2-fluoro-5-methoxybenzylidene)-6-(6-(2-hydroxypropoxy)pyridine-3-yl) pyrazine-2-carbohydrazide]"
> 6.30,> 6.30,"COc1cnc(F)c(/C=N/NC(=O)c2cccc(-c3ccc(OC(F)F)nc3)n2)c1 [Compound 125, (E)-6'-(difluoromethoxy)-N'-((2-fluoro-5-methoxypyridine-3-yl)methylene)-[2,3'-bipyridine]-6-carbohydrazide]"
< 6.00,< 6.00,"COc1cc(/C=N/NC(=O)c2cncc(-c3ccc(OC(F)F)nc3)n2)cc(O)n1 [Compound 118, (E)-6-(6-(difluoromethoxy)pyridine-3-yl)-N'-((2-hydroxy-6-methoxypyridine-4-yl)methylene)pyrazine-2-carbohydrazide]"
< 6.00,6.00 to 6.30,"CCOc1ccc(-c2cncc(C(=O)N/N=C/c3nccn3CC)n2)cn1 [Compound 60, (E)-6-(6-ethoxypyridine-3-yl)-N'-((1-ethyl-1H-imidazole-2-yl)methylene)pyrazine-2-carbohydrazide]"
< 6.00,> 6.30,"CCOc1ccc(-c2cncc(C(=O)N/N=C/c3cc(OC)cnc3F)n2)c(C)n1 [Compound 152, (E)-6-(6-ethoxy-2-methylpyridine-3-yl)-N'-((2-fluoro-5-methoxypyridine-3-yl)methylene)pyrazine-2-carbohydrazide]"
< 6.00,> 6.30,"O=C(N/N=C/c1ccccc1F)c1cncc(-c2ccc(OC(F)(F)F)nc2)n1 [Compound 89, (E)-N'-(2-fluorobenzylidene)-6-(6-(trifluoromethoxy)pyridine-3-yl)pyrazine-2-carbohydrazide]"
< 6.00,6.00 to 6.30,"CCOc1ccc(-c2cncc(C(=O)N/N=C/c3ncoc3C)n2)cn1 [Compound 62, (E)-6-(6-ethoxypyridine-3-yl)-N'-((5-methyloxazole-4-yl)methylene)pyrazine-2-carbohydrazide]"
< 6.00,> 6.30,"CCOc1ccc(-c2cncc(C(=O)N/N=C/c3cccn3C)n2)cn1 [Compound 50, (E)-6-(6-ethoxypyridine-3-yl)-N'-((1-methyl-1H-pyrrole-2-yl)methylene)pyrazine-2-carbohydrazide]"
< 6.00,< 6.00,"CCOc1ccc(-c2cnc(O)c(C(=O)N/N=C/c3cc(OC)cnc3F)n2)cn1 [Compound 65, (E)-6-(6-ethoxypyridine-3-yl)-N'-((2-fluoro-5-methoxypyridine-3-yl)methylene)-3-hydroxypyrazine-2-carbohydrazide]"

# Continued, molecule first:
SMILES,pIC50 [1],pIC50 [2]
"CC(O)c1ccc(F)c(/C=N/NC(=O)c2cncc(-c3ccc(OC(F)F)nc3)n2)c1 (centres unmarked) [Compound 110, (E)-6-(6-(difluoromethoxy)pyridine-3-yl)-N'-(2-fluoro-5-(1-hydroxyethyl)benzylidene)pyrazine-2-carbohydrazide]",< 6.00,> 6.30
"CCOc1ccc(-c2cncc(C(=O)N/N=C/c3cc(O)cnc3F)n2)cn1 [Compound 28, (E)-6-(6-ethoxypyridine-3-yl)-N'-((2-fluoro-5-hydroxypyridine-3-yl)methylene)pyrazine-2-carbohydrazide]",< 6.00,6.00 to 6.30
"CCOc1ccc(-c2cncc(C(=O)N(C)/N=C/c3cc(OC)cnc3F)n2)cn1 [Compound 175, (E)-6-(6-ethoxypyridine-3-yl)-N'-((2-fluoro-5-methoxypyridine-3-yl)methylene)-N-methylpyrazine-2-carbohydrazide]",< 6.00,< 6.00
"CCOc1ccc(-c2nc(C(=O)N/N=C/c3cc(OC)ccc3F)cn(C)c2=O)cn1 [Compound 76, (E)-6-(6-ethoxypyridine-3-yl)-N'-(2-fluoro-5-methoxybenzylidene)-4-methyl-5-oxo-4,5-dihydropyrazine-2-carbohydrazide]",< 6.00,< 6.00
"CCOc1cc(C)c(-c2cncc(C(=O)N/N=C/c3cc(OC)cnc3F)n2)cn1 [Compound 151, (E)-6-(6-ethoxy-4-methylpyridine-3-yl)-N'-((2-fluoro-5-methoxypyridine-3-yl)methylene)pyrazine-2-carbohydrazide]",< 6.00,> 6.30
"COc1cc(/C=N/NC(=O)c2cncc(-c3ccc(OC4CC4)nc3)n2)c(F)cc1F [Compound 78, (E)-6-(6-cyclopropoxypyridine-3-yl)-N'-(2,4-difluoro-5-methoxybenzylidene) pyrazine-2-carbohydrazide]",> 6.30,> 6.30
"COc1cc(/C=N/NC(=O)c2cncc(-c3ccc(OC(F)(F)F)nc3)n2)c(F)cn1 [Compound 96, (E)-N'-((5-fluoro-2-methoxypyridine-4-yl)methylene)-6-(6-(trifluoromethoxy)pyridine-3-yl)pyrazine-2-carbohydrazide]",< 6.00,> 6.30
"CCOc1ccc(-c2cncc(C(=O)N/N=C/c3cc(S(N)(=O)=O)ccc3F)n2)cn1 [Compound 14, (E)-3-((2-(6-(6-ethoxypyridine-3-yl)pyrazine-2-carbonyl)hydrazinylidene)methyl)-4-fluorobenzenesulfonamide]",< 6.00,< 6.00
"CCOc1ccc(-c2cncc(C(=O)N/N=C/c3ccnn3CC)n2)cn1 [Compound 52, (E)-6-(6-ethoxypyridine-3-yl)-N'-((1-ethyl-1H-pyrazole-5-yl)methylene)pyrazine-2-carbohydrazide]",< 6.00,> 6.30
"CCOc1ccc(-c2cncc(C(=O)N/N=C/c3cc(OC4CCC4)cnc3F)n2)cn1 [Compound 36, (E)-N'-((5-cyclobutoxy-2-fluoropyridine-3-yl)methylene)-6-(6-ethoxypyridine-3-yl)pyrazine-2-carbohydrazide]",< 6.00,> 6.30
"COc1cccc(/C=N/NC(=O)c2cncc(-c3ccc(OC(F)(F)F)nc3)n2)c1 [Compound 90, (E)-N'-(3-methoxybenzylidene)-6-(6-(trifluoromethoxy)pyridine-3-yl)pyrazine-2-carbohydrazide]",< 6.00,> 6.30
"[2H]C([2H])([2H])Oc1cnc(F)c(/C=N/NC(=O)c2cncc(-c3ccc(OC([2H])([2H])C([2H])([2H])[2H])nc3)n2)c1 [Compound 174, (E)-6-(6-(ethoxy-d5)pyridine-3-yl)-N'-((2-fluoro-5-(methoxy-d3)pyridine-3-yl)methylene)pyrazine-2-carbohydrazide]",< 6.00,> 6.30
"COc1cc(/C=N/NC(=O)c2cncc(-c3ccc(OC(F)F)nc3)n2)c(F)cn1 [Compound 106, (E)-6-(6-(difluoromethoxy)pyridine-3-yl)-N'-((5-fluoro-2-methoxypyridine-4-yl)methylene)pyrazine-2-carbohydrazide]",< 6.00,6.00 to 6.30

# Source: patent EP4660182A1, “NAV1.7- AND/OR NAV1.8-INHIBITING ARYL PYRIDINE COMPOUNDS, PROCESSES FOR THE PREPARATION THEREOF, COMPOSITIONS, USES, METHODS FOR TREATMENT USING SAME, AND KITS” (Eurofarma Laboratórios S.A., priority 2023, dated 2024)
